From the C3SDB collision cross section collection
Where “and” joins values, the source holds several entries; their conditions need not be identical. Equal entries are not always repeated.

Key:
[1] = instrument: DT, single field
[2] = instrument: DT, single field, calibrated with Agilent tune mix (Agilent)
[3] = [M+Na]+; instrument: DT; stepped-field

Row | Compound | collision cross section (N2) ([1]; [M+Na]+) | collision cross section (N2) ([2]; [M+NH4]+) | collision cross section (N2) ([1]; [M+NH4]+) | further results
1 | CCCCCCCCCCCCC=CC[C@@H](O)[C@H](COP(=O)([O-])OCC[N+](C)(C)C)NC(=O)CCCCCCCCCCCCCCCCCCC [SM(38:1)] | – | – | – | collision cross section (N2) ([1]; [M+H]+): 293.47 Å²; collision cross section (N2) ([2]; [M+HCOO]-): 292.1 Å²; collision cross section (N2) [3]: 298.5 Å²
2 | CCCCCCCCCCCCC=CC[C@@H](O)[C@H](COP(=O)([O-])OCC[N+](C)(C)C)NC(=O)CCCCCCCCCCCCCCCCCCCCCC [SM(41:1)] | – | – | – | collision cross section (N2) ([1]; [M+H]+): 302.5 Å²; collision cross section (N2) ([2]; [M+HCOO]-): 300.3 Å²; collision cross section (N2) ([2]; [M+H]+): 302.9 Å²; collision cross section (N2) ([2]; [M+Na]+): 302.8 Å²; collision cross section (N2) [3]: 306.3 Å²
3 | CCCCCCCCCCCCC=CC[C@@H](O)[C@H](COP(=O)([O-])OCC[N+](C)(C)C)NC(=O)CCCCCCCCCCCCCCCCCCCCCCC [SM(42:1)] | – | – | – | collision cross section (N2) ([1]; [M+H]+): 304.96 Å²; collision cross section (N2) ([2]; [M+HCOO]-): 303 Å²; collision cross section (N2) [3]: 309.3 Å²
4 | CCCCCCCCCCCCC=CC[C@@H](O)[C@H](COP(=O)([O-])OCC[N+](C)(C)C)NC(=O)CC=CCCCCCCCCCCCCCCCCCCCC [SM(42:2)] | – | – | – | collision cross section (N2) ([1]; [M+H]+): 305.54 Å²; collision cross section (N2) ([2]; [M+H]+): 304.2 Å²; collision cross section (N2) ([2]; [M+Na]+): 304.4 Å²; collision cross section (N2) [3]: 308.2 Å²
5 | CCCC/C=C\CCCCCCCC(=O)OC[C@H](COC(=O)CCCCCCCCCCCCCCCCCCC)OC(=O)CCCCCCCCCCCCCCCCCCC [TG(54:1)] | 325.86 Å² and 328.61 Å² | 328.4 Å² | – | –
6 | CCCC/C=C\CCCCCCCC(=O)OC[C@H](COC(=O)CCCCCCCCC/C=C\CCCCCCCC)OC(=O)CCCCCCCCC/C=C\CCCCCCCC [TG(54:3)] | 322.77 Å² and 324.86 Å² | 326.5 Å² | 324.13 Å² and 326.41 Å² and 329.85 Å² | –
7 | CC/C=C\C/C=C\C/C=C\C/C=C\CCCCC(=O)O[C@H](COC(=O)CCCCCCC/C=C\CCCCCCC)COC(=O)CCCCCCC/C=C\CCCCCCCCC [TG(54:6)] | 316.05 Å² and 318.28 Å² | 319.9 Å² | – | –
8 | CCCCC/C=C\CCCCCCCC(=O)OC[C@H](COC(=O)CCCCCCCCC/C=C\CCCCCCCC)OC(=O)CCCCCCCCC/C=C\CCCCCCCC [TG(55:3)] | – | 327.5 Å² | 330.49 Å² and 333.23 Å² and 328.28 Å² | –
9 | CCCCC/C=C\C/C=C\C/C=C\C/C=C\CCCCCC(=O)OC[C@@H](COC(=O)CCCCCCCCCCC)OC(=O)CCCCCCCCCCCCCCCCCCCC [TG(55:4)] | – | 326 Å² | 328.36 Å² and 330.81 Å² and 326.47 Å² | –
10 | CCCCCCCCCC/C=C\CCCCCCCCCC(=O)OC[C@@H](COC(=O)CCCCCCCCCCC)OC(=O)CCCCCCCCC/C=C\CCCCCCCCCC [TG(56:2)] | 332.96 Å² | 332.8 Å² | – | –
11 | CC/C=C\C/C=C\C/C=C\C/C=C\C/C=C\CCCC(=O)OC[C@@H](COC(=O)CCCCCCCCCCCCCCCCC)OC(=O)CCCC/C=C\C/C=C\C/C=C\CCCCC [TG(56:8)] | – | 325.6 Å² | 323.28 Å² and 324.75 Å² | –
12 | CCCCC/C=C\C/C=C\C/C=C\CCCCCCC(=O)O[C@H](COC(=O)CCCCCCCCCCCCCCC)COC(=O)CCCCCCCCCCCCCCCCCCCCC [TG(58:3)] | – | 336.8 Å² | 339.23 Å² and 342.34 Å² and 337.3 Å² | –
13 | CCCCC/C=C\C/C=C\C/C=C\CCCCCCCCC(=O)OC[C@@H](COC(=O)CCCCCCC/C=C\CCCCCCC)OC(=O)CCCCCCCCCCCCCCCCCC [TG(58:4)] | – | 336.6 Å² | 340.43 Å² and 336.2 Å² | –
14 | CC/C=C\C/C=C\C/C=C\C/C=C\C/C=C\CCCCCC(=O)OC[C@@H](COC(=O)CCCCCCC/C=C\CCCCCC)OC(=O)CCCCCC/C=C\C/C=C\C/C=C\CCCCC [TG(58:9)] | 329.2 Å² | 330 Å² | 328.42 Å² and 327.73 Å² | –
15 | CC/C=C\C/C=C\C/C=C\C/C=C\C/C=C\CCCCCC(=O)OC[C@@H](COC(=O)CCCCCCCCCCCCCCC)OC(=O)CCC/C=C\C/C=C\C/C=C\C/C=C\C/C=C\CC [TG(58:10)] | – | 327.2 Å² | 327.44 Å² | –
16 | CCCCC/C=C\C/C=C\C/C=C\CCCCCCCCC(=O)OC[C@@H](COC(=O)CCCCCCCCCCCCCCCCC)OC(=O)CCCCCCCCC/C=C\C/C=C\CCCCC [TG(60:5)] | – | 339.4 Å² | 344.42 Å² | –
